Legend:
Bromus spp. = assay: preemergence treatment in the greenhouse, % damage; type: in vivo
Source text: (§1) The vessels employed were plastic flowerpots having a volume of 300 cm^3; the substrate was a sandy loam containing about 1.5% humus. The seeds of the test plants (see Table 1) were sown shallow, and separated according to species. In the case of Cyperus esculentus, pregerminated tubers were planted. In the preemergence treatment, the active ingredients were then immediately applied to the surface of the soil. They were suspended or emulsified in water as the vehicle, and sprayed through atomizing nozzles. After the agents had been applied, the vessels were lightly sprinkler-irrigated to set germination and growth going, and to activate the chemical agents. The vessels were then covered with transparent plastic hoods until the plants had taken root. This cover ensured uniform germination of the test plants (to the extent that this was not impaired by the chemicals), and prevented readily volatile substances from evaporating.
(§2) For postemergence treatment, the plants were first grown to a height of from 3 to 10 cm, depending on their habit, before treated. Hoods were not placed on the pots. The experiments were set up in the greenhouse, hotter areas (25° to 40° C.) being preferred for heat-loving species, and 15° to 30° C. for plants from moderate climates. The experiments were carried out for from 4 to 6 weeks. During this period the plants were tended and their reaction to the various treatments was assessed. The following tables contain the substances investigated, the application rates in kg/ha of active ingredient, and the test plant species. Assessments were made on a 0 to 100 scale, 0 denoting no damage or normal emergence, and 100 denoting no emergence or complete destruction of at least the visible plant parts.

Amar. retro. = assay: preemergence treatment in the greenhouse, % damage; type: in vivo
Source text: as §1, §2

Chrys. seget. = assay: preemergence treatment in the greenhouse, % damage; type: in vivo; settings: 0.25 kg/ha
Source text: as §1, §2

Solanum nigrum = assay: preemergence treatment in the greenhouse, % damage; type: in vivo
Source text: as §1, §2

Cyp. diff. = assay: preemergence treatment in the greenhouse, % damage; type: in vivo
Source text: as §1, §2

Poa annua = assay: preemergence treatment in the greenhouse, % damage; type: in vivo
Source text: as §1, §2

Euph. gen. = assay: preemergence treatment in the greenhouse, % damage; type: in vivo; settings: 0.25 kg/ha
Source text: as §1, §2

Sorgh. halep. = assay: preemergence treatment in the greenhouse, % damage; type: in vivo
Source text: as §1, §2

Anth./Matric. = assay: preemergence application in the open, % damage; type: in vivo
Protocol: (§3) The experiments were carried out on small plots. The soil was a sandy loam having a pH of from 5 to 6 and containing from 1 to 1.5% humus. The treatment was preemergence, the active ingredients being applied immediately or at the latest 3 days after sowing. The crop plants were sown in rows. The weed flora was made up of the most widely varying species and was natural; the weed flora depended on the time of the year and in part on the crop (e.g., spring-germinating, summer-germinating). The substances were emulsified or suspended in water as the vehicle, and applied by means of a motor-driven plot spray mounted on a hitch. When no rain fell, the plots were watered to ensure germination and growth of the crop plants and weeds. All the experiments were run for several weeks. Over this period, assessments were made at certain intervals on the 0 to 100 scale.

Brassica napus [1] = assay: preemergence application in the open, % damage; type: in vivo
Protocol: as §3

Lamium spp. = assay: preemergence application in the open, % damage; type: in vivo
Protocol: as §3

Stellaria media = assay: preemergence application in the open, % damage; type: in vivo
Protocol: as §3

Alopec. myosur. [2] = assay: preemergence application in the open, % damage; type: in vivo
Protocol: as §3

Cyper. escul. = assay: postemergence application in the greenhouse, % damage; type: in vivo, Cyperus esculentus
Source text: as §1, §2

Stell. med. = assay: as above; type: in vivo
Source text: as §1, §2

Avena fat. = assay: as above; type: in vivo
Source text: as §1, §2

Setaria spp. [3] = assay: as above; type: in vivo
Source text: as §1, §2

Zea mays = assay: preemergence treatment in the greenhouse, % damage; type: in vivo; settings: 2.0 kg/ha
Source text: as §1, §2

Echin. c.g. = assay: preemergence treatment in the greenhouse, % damage; type: in vivo; settings: 2.0 kg/ha
Source text: as §1, §2

Brassica napus [4] = assay: preemergence treatment in the greenhouse, % damage; type: in vivo; settings: 2.0 kg/ha
Source text: as §1, §2

Matric. spp. = assay: preemergence treatment in the greenhouse, % damage; type: in vivo; settings: 2.0 kg/ha
Source text: as §1, §2

Alopec. myosur. [5] = assay: preemergence treatment in the greenhouse, % damage; type: in vivo; settings: 2.0 kg/ha
Source text: as §1, §2

Setaria spp. [6] = assay: preemergence treatment in the greenhouse, % damage; type: in vivo; settings: 2.0 kg/ha
Source text: as §1, §2

Beta vulg. = assay: Table 13, % damage; type: in vivo, Beta vulgaris
Source text: as §1, §2

Setar. spp. = assay: Table 13, % damage; type: in vivo
Source text: as §1, §2

Echin c.g. = assay: Table 13, % damage; type: in vivo
Source text: as §1, §2

Alopec. myosur. [7] = assay: Table 13, % damage; type: in vivo
Source text: as §1, §2

CCc1cccc(C)c1N(Cn1nc(C)cc1C)C(=O)CCl [Compound 40]
% damage (Bromus spp.; 0.25 kg/ha): 80% | % damage (Amar. retro.; 0.125 kg/ha): 90% | % damage (Amar. retro.; 0.25 kg/ha): 100% | % damage (Chrys. seget.): 30% | % damage (Solanum nigrum; one value printed for two rates (0.125 0.25 kg/ha)): 95% | % damage (Cyp. diff.; 0.125 kg/ha): 100% | % damage (Cyp. diff.; 0.25 kg/ha): 100% | % damage (Poa annua; 0.25 kg/ha): 100% | % damage (Euph. gen.): 0% | % damage (Sorgh. halep.; 0.125 kg/ha): 60% | % damage (Sorgh. halep.; 0.25 kg/ha): 60% | % damage (Anth./Matric.; 1.0 kg/ha): 90% | % damage (Brassica napus [1]; 1.0 kg/ha): 20% | % damage (Lamium spp.; 1.0 kg/ha): 60% | % damage (Stellaria media; 1.0 kg/ha): 68% | % damage (Alopec. myosur. [2]; 1.0 kg/ha): 50%

Cc1cc(C)n(CN(C(=O)CCl)c2c(C)cccc2C)n1 [Compound 38]
% damage (Cyper. escul.; 1.0 kg/ha): 80% | % damage (Cyper. escul.; 2.0 kg/ha): 80% | % damage (Bromus spp.; 0.125 kg/ha): 95% | % damage (Bromus spp.; 0.25 kg/ha): 100% | % damage (Amar. retro.; 0.125 kg/ha): 75% | % damage (Amar. retro.; 0.25 kg/ha): 100% | % damage (Cyp. diff.; 0.125 kg/ha): 100% | % damage (Cyp. diff.; 0.25 kg/ha): 100% | % damage (Poa annua; 0.125 kg/ha): 100% | % damage (Poa annua; 0.25 kg/ha): 100% | % damage (Sorgh. halep.; 0.125 kg/ha): 70% | % damage (Sorgh. halep.; 0.25 kg/ha): 95% | % damage (Stell. med.; 1.0 kg/ha): 100% | % damage (Stell. med.; 2.0 kg/ha): 100% | % damage (Avena fat.; 1.0 kg/ha): 70% | % damage (Avena fat.; 2.0 kg/ha): 90% | % damage (Setaria spp. [3]; 1.0 kg/ha): 85% | % damage (Setaria spp. [3]; 2.0 kg/ha): 85% | % damage (Anth./Matric.; 2.0 kg/ha): 100% | % damage (Brassica napus [1]; 2.0 kg/ha): 0% | % damage (Lamium spp.; 2.0 kg/ha): 100% | % damage (Stellaria media; 2.0 kg/ha): 88% | % damage (Alopec. myosur. [2]; 2.0 kg/ha): 80%

CCc1cccc(C)c1N(Cn1cccn1)C(=O)CCl [Compound 7]
% damage (Bromus spp.; 0.25 kg/ha): 95% | % damage (Amar. retro.; 0.25 kg/ha): 88% | % damage (Chrys. seget.): 100% | % damage (Solanum nigrum; 0.25 kg/ha): 100% | % damage (Poa annua; 0.25 kg/ha): 100% | % damage (Euph. gen.): 80% | % damage (Sorgh. halep.; 0.25 kg/ha): 75% | % damage (Anth./Matric.; 0.5 kg/ha): 100% | % damage (Brassica napus [1]; 0.5 kg/ha): 5% | % damage (Brassica napus [1]; 1.0 kg/ha): 10% | % damage (Lamium spp.; 0.5 kg/ha): 95% | % damage (Lamium spp.; 1.0 kg/ha): 100% | % damage (Stellaria media; 0.5 kg/ha): 80% | % damage (Stellaria media; 1.0 kg/ha): 95% | % damage (Alopec. myosur. [2]; 0.5 kg/ha): 70% | % damage (Alopec. myosur. [2]; 1.0 kg/ha): 85%

Cc1ccccc1N(Cn1nc(C)c(C)c1C)C(=O)CCl
% damage (Bromus spp.; 2.0 kg/ha): 80% | % damage (Zea mays): 10% | % damage (Solanum nigrum; 2.0 kg/ha): 100% | % damage (Echin. c.g.): 55% | % damage (Brassica napus [4]): 30% | % damage (Matric. spp.): 95% | % damage (Alopec. myosur. [5]): 50% | % damage (Setaria spp. [6]): 100%

Cc1ccccc1N(Cn1cccn1)C(=O)CCl
% damage (Bromus spp.; 2.0 kg/ha): 80% | % damage (Zea mays): 15% | % damage (Solanum nigrum; 2.0 kg/ha): 95% | % damage (Echin. c.g.): 95% | % damage (Brassica napus [4]): 0% | % damage (Matric. spp.): 90% | % damage (Alopec. myosur. [5]): 90% | % damage (Setaria spp. [6]): 95%

CCc1cccc(C)c1N(Cn1cnc(Cl)c1Cl)C(=O)CCl
% damage (Beta vulg.; appl. rate 0.5): 0% | % damage (Beta vulg.; appl. rate 1.0): 0% | % damage (Setar. spp.; appl. rate 0.5): 100% | % damage (Setar. spp.; appl. rate 1.0): 100% | % damage (Echin c.g.; appl. rate 0.5): 100% | % damage (Echin c.g.; appl. rate 1.0): 100% | % damage (Alopec. myosur. [7]; appl. rate 0.5): 100% | % damage (Alopec. myosur. [7]; appl. rate 1.0): 100%

CCc1cccc(C)c1N(Cn1cncn1)C(=O)CCl [Compound 129]
% damage (Anth./Matric.; one value printed for two rates (2.0 4.0 kg/ha)): 35% | % damage (Brassica napus [1]; 2.0 kg/ha): 7.5% | % damage (Brassica napus [1]; 4.0 kg/ha): 22.5% | % damage (Lamium spp.; 2.0 kg/ha): 45% | % damage (Lamium spp.; 4.0 kg/ha): 90% | % damage (Stellaria media; 2.0 kg/ha): 24% | % damage (Stellaria media; 4.0 kg/ha): 49% | % damage (Alopec. myosur. [2]; 2.0 kg/ha): 35% | % damage (Alopec. myosur. [2]; 4.0 kg/ha): 68%

Reference: patent publication US4593104A, “2-halo-N-(azole-1-yl-methyl)-substituted acetanilides” (BASF Aktiengesellschaft, priority 1976, dated 1986)
